This is an account of results in ChEMBL document CHEMBL4616726, “Optimization of the Linker Domain in a Dimeric Compound that Degrades an r(CUG) Repeat Expansion in Cells” (J Med Chem, 2020).

The nature of series [1]: Toxicity in human DM1-patient derived myotubes at 5 uM.
Series [2] can be described thus: Induction of DNA damage in human DM1-patient derived myotubes at 1 uM assessed as induction of DNA double strand breaks by measuring gamma-H2AX foci formation by immunofluorescence assay relative to control. The series is classed as functional.

For the molecule `CN1CCN(c2ccc3[nH]c(-c4ccc5[nH]c(-c6cccc(OCCCC(=O)N(C)CCCCN(CC(N)=O)C(=O)[C@H](Cc7ccc(O)cc7)NC(=O)[C@H](Cc7ccc(O)cc7)NC(=O)[C@H](Cc7ccc(O)cc7)NC(=O)[C@H](Cc7ccc(O)cc7)NC(=O)CCCOc7cccc(-c8nc9ccc(-c%10nc%11ccc(N%12CCN(C)CC%12)cc%11[nH]%10)cc9[nH]8)c7)c6)nc5c4)nc3c2)CC1`, the Activity result in series [1] is “Toxic”.

As for `Cc1c(N)nc([C@H](CC(N)=O)NC[C@H](N)C(N)=O)nc1C(=O)N[C@H](C(=O)N[C@H](C)[C@@H](O)[C@H](C)C(=O)N[C@H](C(=O)NCCc1nc(-c2nc(C(=O)NCCCNCCCCN)cs2)cs1)[C@@H](C)O)[C@@H](O[C@@H]1O[C@@H](CO)[C@@H](O)[C@H](O)[C@@H]1O[C@@H]1O[C@H](CO)[C@@H](O)[C@H](OC(N)=O)[C@@H]1O)c1cnc[nH]1`, the “fold change (FC)” value in series [2] is on record as 6.
